These results are taken from patent publication US6649797B2, “Compounds and methods of use to treat infectious diseases” (The Picower Institute for Medical Research, priority 1996, dated 2003).

Structures are written as SMILES. Where two headings read alike, the source gives them in different places.

The test system of one assay is Plasmodium falciparum. Put plainly: Antimalarial activity in vitro, [3H]-hypoxanthine incorporation. The class given is cell-based. Particulars: Plasmodium falciparum. An excerpt:
The antimalarial properties of the compounds of the invention can be analyzed by techniques, assays and experimental animal models well known in the art. For example, the inhibition of growth of Plasmodium falciparum in vitro by the compounds may be assessed by the hypoxanthine-incorporation method (Desjardins et al., 1979, Antimicrob. Ag. Chemother. 16:710-718). […] The in vivo efficacy of the compounds can also be tested in mouse models in which parasitemia is enumerated following administration of the compound (Ager, A. L. 1984, Rodent malaria models, pp 225-264. In Handbook of Experimental Pharmacology vol. 68, Antimalarial Drugs, Peters and Richards eds, Springer-Verlag, Berlin).
The antimalarial activity of the compounds was determined essentially as described in Desjardins et al. supra. Fifty μl of various concentrations of a compound of the invention, chloroquine, or pyrimethamine were added to the wells of microtiter plates, followed by 200 μl of ring-stage, synchronized, P. falciparum-infected erythrocytes (final hematocrit=1.5%, final parasitemia=1-5%). The plates were incubated for 24 hr in a candle jar kept at 37° C., and then 25 μl of [^3H]-hypoxanthine (Amersham, Arlington Heights, ILL.; 2.5 μl Ci/well) was added. The plates were then incubated for a further 24 hr, before harvesting onto Unifilter-96 GF/C filter-microplates (Packard; Meriden, Conn.). Twenty-five μl of Microscint scintillation fluid (Packard) was added to each well of the filter-microplate, which was subsequently counted in a Top-count microplate scintillation counter (Packard). The percent of [^3H]-hypoxanthine uptake relative to control infect-erythrocytes was used to determine the IC50 value for the compounds by non-linear regression for LD50 determination.

A further assay concerns HIV-1ADA. Put plainly: Anti-HIV activity in primary human monocytes, day 9 (Table IX, FIG. 12C). Format: cell-based. Particulars: Human immunodeficiency virus 1, Monocyte, 216 h.
For assay [1], the target named is T1, pseudovirion-derived nucleoprotein complexes / karyopherin α (Human immunodeficiency virus type 1 group M subtype B, UniProt P04591).
T1 construct: composed exclusively of Gag (MA, CA, NC, p6) and Env (gp41 and gp120) proteins; endogenous in cells; host or cells: cytoplasmic lysate of H9 cells inoculated with HIV-like gag-env pseudovirions (Haffar et al. 1990)
In words: Binding of pseudovirion-derived nucleoprotein complexes to GST-karyopherin α. The class given is biochemical, HIV-1. Particulars: various concentrations. Here is the method: Cytoplasmic lysates of H9 cells infected with HIV-1RF (upper panel) or HIV-like pseudovirions (bottom panel) were treated for 2 hours with various concentrations of CNI-H0294, and were then mixed with GST-karyopherin α immobilized on glutathione Sepharose beads. HIV-1 DNA or RNA that co-precipitated with karyopherin α was quantified as in A and B.
H9 cells were infected with HIV-1 or HIV-like pseudovirions (Haffar, et al., 1990, J. Virol., 64:2653-2659) at a multiplicity adjusted according to p24 content (50 ng p24 per 10^6 cells) The MA NLS^− virus contains substitutions of isoleucine residues for lysines in positions 26 and 27 of MA in an NLHX backbone (Westervelt., et al., 1992, J. Virol. 66:2577-2582), thus inactivating the NLS. The Vpr^− virus has the initiating ATG of the vpr gene changed to GTG, thus abolishing expression of this gene. The ΔMA NLS pseudovirions have leucine substituting for lysine in position 28 of MA. This mutation abrogates nuclear translocation of HIV-1 gag RNA in growth-arrested H9 cells infected with pseudovirions. […]
Cytoplasmic extracts prepared from HIV-1-or pseudovirion-infected H9 cells were adjusted to 0.14 M NaCl, 0.1% Tween 20 and precleared with glutathione-Sepharose beads for 30 min. at room temperature. Karyopherin α was expressed as a fusion protein with glutathione S-transferase (GST) which can bind glutathione beads in solution. […]

`CC(=O)c1cc(Nc2cc(C)[n+](C)c(N)n2)cc(C(C)=O)c1` [CNI-0294, 2-Amino-4-(3,5-diacetylphenyl)amino-1,6-dimethylpyrimidinium chloride]: the IC50 in the assay on Plasmodium falciparum (FCR3, clone FCR-3, ± standard deviation, read-out: IC50) was 3090 ± 300 nM; in the assay with Plasmodium falciparum (HB3, clone HB3, ± standard deviation, read-out: IC50), 1790 ± 270 nM; in the assay with Plasmodium falciparum (clone D10, ± standard deviation, read-out: IC50) it was 4000 ± 410 nM; with Plasmodium falciparum (series of cloned parasites with different sensitivities to chloroquine or pyrimethamine, read-out: median inhibitory concentration (IC50)), 1790 to 4000 nM; with HIV-1ADA, 50 nM. Besides, the “inhibition of binding of karyopherin α to pseudovirion-derived nucleoprotein complexes” value in assay [1] is “did not inhibit”.
